Our source for the IC50 values is patent US20240246980A1, “MODULATORS OF MAS-RELATED G-PROTEIN RECEPTOR D AND RELATED PRODUCTS AND METHODS” (Escient Pharmaceuticals, Inc., priority 2022, published 2024).

The target of this experiment is human MRGPRD (Homo sapiens, UniProt Q8TDS7). Kind of experiment: MRGPRD antagonist activity, IP-One HTRF assay in CHO cells stably expressing human MRGPRD (versus 100 μM β-Alanine agonist). Format: cell-based. As to the method: Chinese Hamster Ovary (CHO) cells stably expressing human MRGPRD (Eurofins, San Diego CA) were plated in a 384-well plate at 20,000 cells per well in 12 μL of Optimem (Fisher Scientific 11-058-021). Plates were kept in the incubator at 37° C. overnight. Antagonists were solubilized at a concentration of 10 mM in DMSO, and the agonists were solubilized to stock concentrations of either 50 mM in H2O (β-Alanine) or 10 mM in DMSO (all others) and then diluted in assay buffer (final concentrations of 5.7 mM Tris-HCl, 43 mM NaCl, 50 mM LiCl, pH=8). The concentration of DMSO was normalized across the plate. Antagonists were added to the plate using a Tecan D300 Digital Dispenser at nanoliter/picoliter volumes and 2 μL of agonists in assay buffer were added to each well for a final assay volume of 14 μL. Plates were covered and incubated for 1 h at 37° C. and then for 1 h at room temperature. IP-1 standards and HTRF detection reagents were added according to an IP-One-Gq Kit purchased from Cisbio (part number 62IPAPEJ) and incubated in the dark for 1 h at room temperature. Assay plates were read on either a Molecular Devices SpectraMax iD5 plate reader or a BMG ClarioStar plate reader. The HTRF ratio was calculated form the raw data and graphed using GraphPad Prism to calculate IC50 values. Data are expressed as average IC50 values and average percent antagonism calculated as a percent of the maximum efficacy response. For these studies, the variability of the data was assessed by determining the standard error of mean (SEM).
The activity ranges are denoted as follows: “+++++” denotes antagonist activity <100 nM; “++++” denotes antagonist activity between 100 and 500 nM; “+++” denotes activity between 500 and 1000 nM; “++” denotes activity between 1000 and 3000 nM; and “+” denotes activity >3000 nM.

Some results are limits rather than exact numbers.

Chain of human MRGPRD (Q8TDS7 whole entry): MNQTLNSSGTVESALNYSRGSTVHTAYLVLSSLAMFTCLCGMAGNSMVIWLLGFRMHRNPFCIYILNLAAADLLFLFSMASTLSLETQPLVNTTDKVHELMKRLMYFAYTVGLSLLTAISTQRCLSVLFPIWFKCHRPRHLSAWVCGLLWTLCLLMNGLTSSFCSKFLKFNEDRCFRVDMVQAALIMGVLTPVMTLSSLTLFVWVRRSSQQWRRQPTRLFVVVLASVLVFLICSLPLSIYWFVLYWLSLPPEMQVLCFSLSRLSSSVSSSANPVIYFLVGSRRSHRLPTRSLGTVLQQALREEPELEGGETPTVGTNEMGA

For the molecule `COc1ccc(NC(=O)N2CCC[C@H](c3nc(-c4cccc(OC)c4)c4ccccn34)C2)cc1` (stereo in doubt) [Compound 5-29], the half-inhibitory concentration (IC50) (in general, the concentration that gives 50% inhibition) was in the range of 1000 to 3000 nM. The figure for `COc1cccc(-c2nc([C@@H]3CCCN(C(=O)Nc4ccc(N5CCCC5)cc4)C3)n3ccccc23)c1` [Compound 1-1] is 100 to 500 nM; for `COc1cccc(-c2nc([C@@H]3CCCN(C(=O)Nc4ccc(N(C)C)cc4)C3)n3ccccc23)c1` [Compound 1-2, (R)—N-(4-(dimethylamino)phenyl)-3-(1-(3-methoxyphenyl)imidazo[1,5-a]pyridin-3-yl)piperidine-1-carboxamide] it is less than 100 nM. Consider `COc1cccc(-c2nc(C3CCCN(C(=O)N(C)c4ccccc4F)C3)n3ccccc23)c1` (stereo not shown) [Compound 1-3], for which the 50% inhibitory concentration (IC50) is 1000 to 3000 nM. The figure for `COc1cccc(-c2nc(C3CCCN(C(=O)N(C)c4cccc(F)c4)C3)n3ccccc23)c1` (stereo not shown) [Compound 1-4] is 500 to 1000 nM; for `COc1cccc(-c2nc([C@H]3CCCN(C(=O)Nc4ccc(N(C)C)cc4)C3)n3ccccc23)c1` [Compound 1-5] it is 1000 to 3000 nM; for `COc1cccc(-c2nc([C@@H]3CCCN(C(=O)Nc4ccc(N(C)C)c(F)c4)C3)n3ccccc23)c1` [Compound 1-6] it is less than 100 nM. Take `COc1cccc(-c2nc([C@@H]3CCCN(C(=O)Nc4ccc(N(C)C)c(C)c4)C3)n3ccccc23)c1` [Compound 1-7]: the IC50 is less than 100 nM. `COc1cccc(-c2nc([C@@H]3CCCN(C(=O)Nc4ccc(N(C)C)cc4C)C3)n3ccccc23)c1` [Compound 1-8] displayed an IC50 of less than 100 nM. The result for `COc1cccc(NC(=O)N2CCC[C@@H](c3nc(-c4cccc(OC)c4)c4ccccn34)C2)c1` [Compound 1-9] reads less than 100 nM. The result for `COc1cccc(-c2nc([C@@H]3CCCN(C(=O)Nc4ccc(C)c(C)c4)C3)n3ccccc23)c1` [Compound 1-10] reads 100 to 500 nM; that for `COc1cccc(-c2nc([C@@H]3CCCN(C(=O)Nc4ccc(C)cc4F)C3)n3ccccc23)c1` [Compound 1-11], 100 to 500 nM. The result for `CCc1ccc(NC(=O)N2CCC[C@@H](c3nc(-c4cccc(OC)c4)c4ccccn34)C2)cc1` [Compound 1-12] reads less than 100 nM; that for `COc1cccc(-c2nc([C@@H]3CCCN(C(=O)Nc4cccc(C)c4)C3)n3ccccc23)c1` [Compound 1-13], 100 to 500 nM; that for `COc1cccc(-c2nc([C@@H]3CCCN(C(=O)Nc4cccc(F)c4)C3)n3ccccc23)c1` [Compound 1-14], 100 to 500 nM. Molecule `COc1cccc(-c2nc([C@@H]3CCCN(C(=O)Nc4ccccc4C(F)(F)F)C3)n3ccccc23)c1` [Compound 1-15] gave an IC50 of 100 to 500 nM.

Molecule `COc1cccc(-c2nc([C@@H]3CCCN(C(=O)Nc4cccc(C#N)c4)C3)n3ccccc23)c1` [Compound 1-16] yielded a 50% inhibitory concentration (IC50) of 100 to 500 nM. Consider `COc1ccc(NC(=O)N2CCC[C@@H](c3nc(-c4cccc(OC)c4)c4ccccn34)C2)cc1` [Compound 1-17], for which the IC50 was less than 100 nM. Consider `COc1cccc(-c2nc([C@@H]3CCCN(C(=O)Nc4ccc(C)cc4)C3)n3ccccc23)c1` [Compound 1-18], for which the 50% inhibitory concentration (IC50) was in the range of 100 to 500 nM.

The molecule `CCN(CC)c1ccc(NC(=O)N2CCC[C@@H](c3nc(-c4cccc(OC)c4)c4ccccn34)C2)cc1` [Compound 1-19] had an IC50 of less than 100 nM. In turn, `COc1cccc(-c2nc([C@@H]3CCCN(C(=O)Nc4ccc(C(=O)N(C)C)cc4)C3)n3ccccc23)c1` [Compound 1-20] came in with a half-inhibitory concentration (IC50) of less than 100 nM. For the molecule `COc1cccc(-c2nc([C@@H]3CCCN(C(=O)Nc4ccccc4CN(C)C)C3)n3ccccc23)c1` [Compound 1-21], the half-inhibitory concentration (IC50) lay in the range of 500 to 1000 nM. Molecule `COc1cccc(-c2nc([C@@H]3CCCN(C(=O)Nc4cccc(C(F)(F)F)c4)C3)n3ccccc23)c1` [Compound 1-22] yielded an IC50 of 500 to 1000 nM. The figure for `COc1cccc(-c2nc([C@@H]3CCCN(C(=O)Nc4cccc(OC(F)(F)F)c4)C3)n3ccccc23)c1` [Compound 1-23] is 500 to 1000 nM; for `CCOc1cccc(NC(=O)N2CCC[C@@H](c3nc(-c4cccc(OC)c4)c4ccccn34)C2)c1` [Compound 1-24] it is less than 100 nM; for `CCOc1ccc(NC(=O)N2CCC[C@@H](c3nc(-c4cccc(OC)c4)c4ccccn34)C2)cc1` [Compound 1-25] it is less than 100 nM. The figure for `COc1cccc(-c2nc([C@@H]3CCCN(C(=O)Nc4ccc(CN(C)C)cc4)C3)n3ccccc23)c1` [Compound 1-26] is 100 to 500 nM; for `COc1cccc(-c2nc([C@@H]3CCCN(C(=O)NCCCN(C)C)C3)n3ccccc23)c1` [Compound 1-27] it is 500 to 1000 nM. For the molecule `COc1cccc(-c2nc([C@@H]3CCCN(C(=O)Nc4nc(C(C)C)ns4)C3)n3ccccc23)c1` [Compound 1-28], the IC50 fell in the range of 100 to 500 nM. The molecule `COc1cccc(-c2nc([C@@H]3CCCN(C(=O)NCCN(C)C)C3)n3ccccc23)c1` [Compound 1-29] came in with an IC50 of 500 to 1000 nM. Take `COc1cccc(-c2nc([C@@H]3CCCN(C(=O)Nc4ccon4)C3)n3ccccc23)c1` [Compound 1-30]: the half-maximal inhibitory concentration (IC50) fell in the range of 100 to 500 nM. The figure for `COc1cccc(-c2nc([C@@H]3CCCN(C(=O)Nc4ccc5ccccc5c4)C3)n3ccccc23)c1` [Compound 1-31] is 100 to 500 nM; for `COc1cccc(-c2nc([C@@H]3CCCN(C(=O)Nc4ccc5c(cnn5C)c4)C3)n3ccccc23)c1` [Compound 1-32] it is less than 100 nM.

On to `COc1cccc(-c2nc([C@@H]3CCCN(C(=O)Nc4noc(C)c4C)C3)n3ccccc23)c1` [Compound 1-33], for which the IC50 is less than 100 nM.

Regarding `CNC(=O)N1CCC[C@@H](c2nc(-c3cccc(OC)c3)c3ccccn23)C1` [Compound 2-1, (R)-3-(1-(3-methoxyphenyl)imidazo[1,5-a]pyridin-3-yl)-N-methylpiperidine-1-carboxamide], the IC50 is more than 3000 nM.

Molecule `CNC(=O)N1CCC[C@H](c2nc(-c3cccc(OC)c3)c3ccccn23)C1` [Compound 2-2] gave a 50% inhibitory concentration (IC50) of more than 3000 nM. With `COc1cccc(-c2nc(C3CCCN(C(=O)Nc4ccc(F)cc4)C3)n3ccccc23)c1` (stereo not shown) [Compound 3-1], the 50% inhibitory concentration (IC50) fell in the range of 100 to 500 nM. Molecule `COc1cccc(-c2nc(C3CCCN(C(=O)Nc4cccc(C)c4)C3)n3ccccc23)c1` (stereo not shown) [Compound 3-2] showed a concentration for half-maximal inhibition (IC50) of 100 to 500 nM. The figure for `COc1cccc(-c2nc(C3CCCN(C(=O)Nc4cccc(F)c4)C3)n3ccccc23)c1` (stereo not shown) [Compound 3-3] is 100 to 500 nM.

In turn, `COc1cccc(-c2nc(C3CCCN(C(=O)Nc4ccccc4C)C3)n3ccccc23)c1` (stereo not shown) [Compound 3-4] showed an IC50 of 1000 to 3000 nM. In turn, `COc1cccc(-c2nc(C3CCCN(C(=O)Nc4ccc(C)cc4)C3)n3ccccc23)c1` (stereo not shown) [Compound 3-5] yielded an IC50 of 100 to 500 nM.

As for `COc1cccc(-c2nc(C3CCCN(C(=O)Nc4ccccc4)C3)n3ccccc23)c1` (stereo not shown) [Compound 3-6], the IC50 was 100 to 500 nM.

Regarding `COc1cccc(-c2nc(C3CCCN(C(=O)Nc4ccccc4Cl)C3)n3ccccc23)c1` (stereo not shown) [Compound 3-7], the IC50 is 500 to 1000 nM. The result for `COc1cccc(-c2nc(C3CCCN(C(=O)Nc4ccccc4OC)C3)n3ccccc23)c1` (stereo not shown) [Compound 3-8] reads 100 to 500 nM; that for `CCNC(=O)N1CCCC(c2nc(-c3cccc(OC)c3)c3ccccn23)C1` (stereo not shown) [Compound 3-9], 100 to 500 nM. The figure for `COc1cccc(-c2nc(C3CCCN(C(=O)NC(C)(C)C)C3)n3ccccc23)c1` (stereo not shown) [Compound 3-10] is 500 to 1000 nM. Molecule `COc1cccc(-c2nc(C3CCCN(C(=O)NC4CC4)C3)n3ccccc23)c1` (stereo not shown) [Compound 3-11] gave an IC50 of more than 3000 nM. Consider `COc1cccc(-c2nc(C3CCCN(C(=O)Nc4ccc(OC)cc4C)C3)n3ccccc23)c1` (stereo not shown) [Compound 3-12], for which the IC50 fell in the range of 100 to 500 nM. The result for `CNC(=O)N1CCCC(c2nc(-c3cccc(OC)c3)c3ccccn23)C1` (stereo not shown) [Compound 3-13] reads more than 3000 nM; that for `COc1cccc(-c2nc(C3CCCN(C(=O)NCC4CC4)C3)n3ccccc23)c1` (stereo not shown) [Compound 3-14], more than 3000 nM. The figure for `CCc1ccccc1NC(=O)N1CCCC(c2nc(-c3cccc(OC)c3)c3ccccn23)C1` (stereo not shown) [Compound 3-15] is more than 3000 nM; for `COc1cccc(NC(=O)N2CCCC(c3nc(-c4cccc(OC)c4)c4ccccn34)C2)c1` (stereo not shown) [Compound 3-16] it is 100 to 500 nM; for `COc1cccc(-c2nc(C3CCCN(C(=O)Nc4cccc(Cl)c4)C3)n3ccccc23)c1` (stereo not shown) [Compound 3-17] it is 500 to 1000 nM. Turning to `CCc1cccc(NC(=O)N2CCCC(c3nc(-c4cccc(OC)c4)c4ccccn34)C2)c1` (stereo not shown) [Compound 3-18], the concentration for half-maximal inhibition (IC50) is more than 3000 nM. Molecule `COc1ccc(NC(=O)N2CCCC(c3nc(-c4cccc(OC)c4)c4ccccn34)C2)cc1` (stereo not shown) [Compound 3-19] yielded a half-maximal inhibitory concentration (IC50) of 100 to 500 nM.

The molecule `COc1cccc(-c2nc(C3CCCN(C(=O)Nc4ccc(Cl)cc4)C3)n3ccccc23)c1` (stereo not shown) [Compound 3-20] showed an IC50 of 500 to 1000 nM. Turning to `COc1cccc(-c2nc(C3CCCN(C(=O)Nc4cccc(C#N)c4)C3)n3ccccc23)c1` (stereo not shown) [Compound 3-21], the half-inhibitory concentration (IC50) was 100 to 500 nM.

Regarding `CCc1ccc(NC(=O)N2CCCC(c3nc(-c4cccc(OC)c4)c4ccccn34)C2)cc1` (stereo not shown) [Compound 3-22], the 50% inhibitory concentration (IC50) was in the range of 100 to 500 nM.
